Results: ChEMBL document CHEMBL1148036, “Novel nematocidal agents from Curcuma comosa” (1994)
≈ marks a conversion by molar mass, not a printed value.

System: Caenorhabditis elegans
Assay: Nematocidal against Caenorhabditis elegans N2 assessed as motility after 16 hrs
Assay type: functional
Details: N2, 16 h

SMILES | EC95 [µg/mL]
CC(=O)OC(CC/C=C/c1ccccc1)CCc1ccccc1 (stereo not given) | 9 (≈ 29.2 µM)
O=C(CC/C=C/c1ccccc1)CCc1ccccc1 | 9 (≈ 34 µM)
OC(/C=C/C=C/c1ccccc1)CCc1ccccc1 (stereo not given) | > 100
OC(CC/C=C/c1ccccc1)CCc1ccccc1 (stereo not given) | 0.7 (≈ 2.63 µM)
O=C(CCc1ccccc1)C[C@@H](O)/C=C/c1ccccc1 | 1 (≈ 3.57 µM)
